Source: patent US6914065B2, “Imidazo[1,2-C]pyrimidine derivatives as ligands for gaba receptors” (Merck Sharp & Dohme Ltd., priority 2000, dated 2005)

melting point: 119 °C
SMILES: Cc1cc2ncc(-c3cccc(-c4ccccc4C#N)c3)n2cn1 [Example 1, 3′-(7-Methylimidazo[1,2-c]pyrimidin-3-yl)biphenyl-2-carbonitrile]
